Laboratory results published in patent US20120181173A1, “ELECT[…] FOR THE DETECTION OF ANALYTES IN LIQUID MEDIA” (priority 2009, published 2012).
“And” between values parts separate entries of the source, which are not always exact repeats. Equal entries are not always repeated.

Columns and labels:
[1] = target: T1, acetylcholinesterase enzyme (Electrophorus electricus, UniProt O42275); assay: Inhibition of acetylcholinesterase by chlorpyrifos oxon in the Example 4 sensor (silver intermediate layer; graphite; PEDOT layer with PVA layer, d1); conditions: Example 4 sensor (silver + d1), 100 mV
[2] = target: T1, acetylcholinesterase enzyme; assay: Inhibition of acetylcholinesterase by chlorpyrifos oxon in the Example 2 sensor (graphite; PEDOT and PVA conductive gel, d2); conditions: Example 2 sensor (d2), 100 mV
[3] = target: T1, acetylcholinesterase enzyme; assay: Inhibition of acetylcholinesterase by chlorpyrifos oxon in the Example 3 sensor (graphite; cobalt phthalocyanine intermediate layer; PEDOT and PVA, d2); conditions: Example 3 sensor (CoPh + d2), 100 mV
[4] = target: T1, acetylcholinesterase enzyme; assay: Inhibition of acetylcholinesterase by chlorpyrifos oxon in the Example 1 sensor (graphite; PEDOT layer with PVA layer, d1); conditions: Example 1 sensor (d1), 100 mV

T1 sequence (O42275 24-633): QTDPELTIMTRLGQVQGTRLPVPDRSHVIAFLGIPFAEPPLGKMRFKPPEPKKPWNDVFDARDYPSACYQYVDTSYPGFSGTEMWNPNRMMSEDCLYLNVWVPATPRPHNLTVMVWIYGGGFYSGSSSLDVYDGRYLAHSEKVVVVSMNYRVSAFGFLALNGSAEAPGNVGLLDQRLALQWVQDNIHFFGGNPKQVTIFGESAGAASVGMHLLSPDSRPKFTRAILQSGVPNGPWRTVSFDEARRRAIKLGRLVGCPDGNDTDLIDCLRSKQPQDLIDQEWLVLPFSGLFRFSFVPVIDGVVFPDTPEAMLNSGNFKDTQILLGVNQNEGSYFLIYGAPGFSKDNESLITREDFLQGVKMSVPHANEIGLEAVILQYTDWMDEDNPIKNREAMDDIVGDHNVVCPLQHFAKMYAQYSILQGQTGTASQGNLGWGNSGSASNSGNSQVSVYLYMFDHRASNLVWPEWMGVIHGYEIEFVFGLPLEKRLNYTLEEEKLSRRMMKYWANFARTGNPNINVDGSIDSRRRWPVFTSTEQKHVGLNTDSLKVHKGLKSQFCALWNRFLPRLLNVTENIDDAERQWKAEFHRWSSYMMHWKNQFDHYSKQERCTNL

Q: With chlorpyrifos oxon as the substance, how does the “% of inhibition in the presence of pesticide” value (from here on “% of inhibition”) ([1]; chlorpyrifos oxon 1 · 10^−9 M) read?
A: 49.50%

Q: And the “% of inhibition” value ([1]; chlorpyrifos oxon 2 · 10^−10 M)?
A: 8% and 8.28%

Q: What about the “% of inhibition” value ([1]; chlorpyrifos oxon 3 · 10^−9 M) of the same substance?
A: 72.23%

Q: And the “% of inhibition” value ([1]; chlorpyrifos oxon 3 · 10^−10 M)?
A: 19.14%

Q: And the “% of inhibition” value ([1]; chlorpyrifos oxon 4 · 10^−10 M)?
A: 24.51%

Q: What about the “% of inhibition” value ([1]; chlorpyrifos oxon 5 · 10^−10 M) of the same substance?
A: 30.10%

Q: And the “% of inhibition” value ([1]; chlorpyrifos oxon 9 · 10^−10 M)?
A: 47.55%

Q: What about the “% of inhibition” value ([2]; chlorpyrifos oxon 1 · 10^−9 M) of the same substance?
A: 41.71%

Q: What about the “% of inhibition” value ([2]; chlorpyrifos oxon 3 · 10^−9 M) of the same substance?
A: 61.15%

Q: And the “% of inhibition” value ([2]; chlorpyrifos oxon 3 · 10^−10 M)?
A: 10% and 10.09%

Q: And the “% of inhibition” value ([2]; chlorpyrifos oxon 4 · 10^−10 M)?
A: 15.31%

Q: And the “% of inhibition” value ([2]; chlorpyrifos oxon 5 · 10^−10 M)?
A: 22.19%

Q: What about the “% of inhibition” value ([2]; chlorpyrifos oxon 9 · 10^−10 M) of the same substance?
A: 39.75%

Q: And the “% of inhibition” value ([3]; chlorpyrifos oxon 1 · 10^−9 M)?
A: 52.36%

Q: And the “% of inhibition” value ([3]; chlorpyrifos oxon 2 · 10^−10 M)?
A: 9.82%

Q: And the “% of inhibition” value ([3]; chlorpyrifos oxon 3 · 10^−9 M)?
A: 74.80%

Q: And the “% of inhibition” value ([3]; chlorpyrifos oxon 3 · 10^−10 M)?
A: 10.70%

Q: What about the “% of inhibition” value ([3]; chlorpyrifos oxon 4 · 10^−10 M) of the same substance?
A: 32.51%

Q: What about the “% of inhibition” value ([3]; chlorpyrifos oxon 5 · 10^−10 M) of the same substance?
A: 31.46%

Q: And the “% of inhibition” value ([3]; chlorpyrifos oxon 9 · 10^−10 M)?
A: 49.18%

Q: What about the “% of inhibition” value ([4]; chlorpyrifos oxon 1 · 10^−9 M) of the same substance?
A: 46.82%

Q: What about the “% of inhibition” value ([4]; chlorpyrifos oxon 2 · 10^−10 M) of the same substance?
A: 7% and 7.21%

Q: What about the “% of inhibition” value ([4]; chlorpyrifos oxon 3 · 10^−9 M) of the same substance?
A: 69.20%

Q: And the “% of inhibition” value ([4]; chlorpyrifos oxon 3 · 10^−10 M)?
A: 16.11%

Q: And the “% of inhibition” value ([4]; chlorpyrifos oxon 4 · 10^−10 M)?
A: 22.41%

Q: What about the “% of inhibition” value ([4]; chlorpyrifos oxon 5 · 10^−10 M) of the same substance?
A: 27.09%

Q: And the “% of inhibition” value ([4]; chlorpyrifos oxon 9 · 10^−10 M)?
A: 44.54%
